According to ChEMBL document CHEMBL1221319, “Synthesis and biological evaluation of vitamin K derivatives as angiogenesis inhibitor” (Bioorg Med Chem, 2010):
Active and inactive are the calls of the source. The rule behind the calls is not given here.

What was measured:
[1] = test system: Aorta; experiment: Ex vivo antiangiogenic activity in Wistar rat aortic ring assessed as inhibition of angiogenesis at 100 uM after 7 days by phase-contrast microscopy; assay type: functional, tissue-based
[2] = test system: Aorta; experiment: Ex vivo antiangiogenic activity in Wistar rat aortic ring assessed as decrease of microvessel length at 100 uM after 7 days by phase-contrast microscopy; assay type: functional, tissue-based
[3] = test system: Aorta; experiment: Ex vivo antiangiogenic activity in Wistar rat aortic ring assessed as inhibition of angiogenesis at 50 uM after 7 days by phase-contrast microscopy; assay type: functional
[4] = test system: Aorta; experiment: Ex vivo antiangiogenic activity in Wistar rat aortic ring assessed as inhibition of angiogenesis after 7 days by phase-contrast microscopy; assay type: functional, tissue-based
[5] = test system: HUVEC; experiment: Antiangiogenic activity in HUVEC assessed as reduction of tube formation at 100 uM after 12 hrs by phase-contrast microscopy; assay type: functional, cell-based; details: Homo sapiens
[6] = test system: HUVEC; experiment: Inhibition of VEGF-induced HUVEC migration at 100 uM after 6 hrs by gelatin-coated Boyden chamber assay; assay type: functional, cell-based; details: Homo sapiens
[7] = test system: HUVEC; experiment: Antiproliferative activity against HUVEC at 5 to 100 uM after 72 hrs by WST-1 assay; assay type: functional, cell-based; details: Homo sapiens
[8] = test system: HCT-116; experiment: Cytotoxicity against human HCT116 cells; assay type: functional
[9] = Cytotoxicity against HDF; details: human

Compound	Activity [1]	Activity [2]	other results
CCCCCCCCCNC1=C(C)C(=O)c2ccccc2C1=O	inactive	inactive	–
CCCCC1=C(C)C(=O)c2ccccc2C1=O	inactive	Active	–
CNC1=C(C)C(=O)c2ccccc2C1=O	Active	–	–
CCCCCCNC1=C(C)C(=O)c2ccccc2C1=O	inactive	inactive	–
CCCNC1=C(C)C(=O)c2ccccc2C1=O	Active	Active	Activity [3]: >50 µM; Activity [4]: Dose-dependent effect; Activity [5]: Active; inhibition [6]: inactive; Activity [7]: Active; Activity [8]: >100 µM; Activity [9]: > 100 µM
CCC1=C(C)C(=O)c2ccccc2C1=O	Active	–	–
CCCCCCCC1=C(C)C(=O)c2ccccc2C1=O	inactive	inactive	–
CC1=C(Br)C(=O)c2ccccc2C1=O	Active	–	–
CC1=C(C2=C(C)C(=O)c3ccccc3C2=O)C(=O)c2ccccc2C1=O	inactive	–	–
CCCCCCCCCCC1=C(C)C(=O)c2ccccc2C1=O	inactive	inactive	–
